According to paper PMC7822874, “Chemoprotective antimalarials identified through quantitative high-throughput screening of Plasmodium blood and liver stage parasites” (Scientific Reports, 2021):
Like-named read-outs stand apart in the source and are kept apart here.

How the values were obtained:
in vitro [1] = settings: human, hepg2 cells
[2] = test system: Plasmodium falciparum Dd2 asexual blood stage parasites; experiment: microbe, parasite or virus in culture; parameters: species or system Plasmodium falciparum Dd2 in human erythrocytes; single determination (one 11-point concentration-response curve); settings: Plasmodium falciparum, DD2, Erythrocyte, 72 h; read-out: AC50
in vitro [3] = settings: human, HepG2-A16-CD81EGFP cells, uninfected
[4] = test system: P. berghei-ANKA-GFP-LucCON liver stage parasites in HepG2-A16-CD81EGFP cells; experiment: P. berghei liver stage Pb-Luc assay, Method 1 (UCSD, 1536-well); assay type: cell-based, Plasmodium berghei; settings: P. berghei liver stage, averaged response (percent); for Average P. berghei 1 µM response (%): the header list (r8) defines it as the 1 µM dose
HepG2-A16-CD81EGFP cells = settings: averaged response (percent)
in vitro [5] = settings: human, hepg2-a16-cd81egfp cells, % viability
[6] = test system: P. falciparum Dd2 (clone B2) asexual blood stage parasites; experiment: P. falciparum Dd2 asexual blood stage SYBR Green-I 72 h proliferation assay (qHTS); assay type: cell-based, Plasmodium falciparum; settings: for Pf ABS Log AC50 (M): averaged P. falciparum asexual blood stage potency, log10 of AC50 in M
[7] = test system: P. falciparum Dd2 Cytb G131S; experiment: SYBR Green ABS proliferation assay, NCGC00374598 selected clone C11; assay type: cell-based, Plasmodium falciparum; settings: Plasmodium falciparum, DD2, […]; averaged from three independent replicates; top concentration 29 µM; read-out: Average AC50 (Log[M]), NCGC00374598 clone C11 (Cytb G131S) (converted)
Procedure: As resistance selection studies implicated the parasite cytochrome bc1 complex in mediating reduced parasite susceptibility to both NCGC00473217 and NCGC00374598, we leveraged these drug-selected parasites to test for altered drug response to a panel of antimalarial compounds.
The P. falciparum parasite Dd2 line was cultured in vitro using standard conditions. […] Tissue culture flasks and assay plates were incubated at 37 °C under a gas mixture of 5% CO2, 5% O2 and 90% N2. […] Significant differences were assessed using two-sided Student’s t-tests. All HTS assays were stopped and read at 72 h. Percent response values represent relative growth as judged by SYBR Green-I fluorescence intensity values normalized to controls.
Fresh uninfected RBCs (0.5% hematocrit) were added on day 7 and media was changed every other day. […] Resistant parasites were maintained under drug media at a volume of 50 mL until a high parasitemia (> 5%) was achieved. Aliquots of the bulk resistant cultures were frozen in cryovials before cloning by limiting dilution in 96-well plates (seeded at 0.25 or 0.5 parasites/well)[70]. After 3 weeks of cloning, we screened for positive wells by flow cytometry with SYBR Green-stained cells. […] Parasites were harvested by saponin lysis at the trophozoite stage and genomic DNA was extracted using the QIAamp DNA Blood Midi Kit (Qiagen, Germantown, MD)[71].

[8] = HepG2, the header list (r10) describes it as the 1 µM dose

SMILES | CC50 at 48 h (in vitro [1]) [µM] | AC50 [2] [µM] | Average P. berghei 3 µM response( %) [4] [%] | Average HepG2 3 µM response( %) (HepG2-A16-CD81EGFP cells; HepG2, 3 µM dose) [%] | Average HepG2 3 µM response( %) (HepG2-A16-CD81EGFP cells; [8]) [%] | viability at 3 µM (in vitro [5]) [%] | Pf ABS Log AC50 (M) [6] [M] | further results
Cc1cc(N2CCC(N(C)C3CCCC3)CC2)nc2cc(O)ccc12 [MLS000118330-01] | > 57 | 5.96 | – | – | – | – | – | –
CCCn1c2c(c(=N)c3c1CCC3)CCC2 [MLS001047442-01] | > 57 | 13.3 | – | – | – | – | – | viability at 48 h (in vitro [3]): 99.2%; viability at 48 h, 1 µM (in vitro [3]): 99.2%
COc1ccc(C2c3[nH]c4ccccc4c3C[C@H]3C(=O)N(C4CCN(Cc5ccccc5)CC4)CC(=O)N23)cc1OC (stereo partly shown) [MLS001215281] | – | – | 73 | 90 | 101 | 90.3 | -5.612 | Average P. berghei 1 µM response (%) [4]: 94%
N[S+](=O)([O-])c1cc2c(cc1Cl)N=CN[S+]2(=O)[O-] [NCGC00015242-14] | – | – | – | – | – | – | – | AC50 [7]: 7.1e-07 M; AC50 ([6]; Plasmodium falciparum, DD2, Dd2 parental, Hill fit, averaged from three independent replicates, top concentration 29 µM, read-out: Average AC50 (Log[M]), Dd2 (converted)): 2e-06 M
CCc1ccccc1OC[C@@H](O)CN[C@@H]1CCCc2ccccc21 [NCGC00025196] | – | – | 77 | 92 | 95 | 91.7 | -5.800 | Average P. berghei 1 µM response (%) [4]: 73%
Cc1ccc(O)c(-c2cc(C(=O)Nc3ccc([S+](=O)([O-])N4CC(C)OC(C)C4)cc3)n[nH]2)c1 (stereo not shown) [NCGC00071593] | – | – | 65 | 97 | 100 | 97 | -6.150 | Average P. berghei 1 µM response (%) [4]: 89%
CCN1CCN(c2cc(C)c3cc(NC(=O)c4cccc(Cl)c4)ccc3n2)CC1 [NCGC00103820-01] | > 57 | 4.73 | – | – | – | – | – | –
CC(C)N(Cc1ccccc1)C(=O)CN1C(=O)COc2ccc([S+](=O)([O-])N3CCCCCC3)cc21 [NCGC00123222] | – | – | 127 | 94 | 99 | 93.6 | -6.100 | Average P. berghei 1 µM response (%) [4]: 105%
CN(C(Cc1ccc(O[S+](=O)([O-])c2cccc3cnccc23)cc1)C(=O)N1CCN(c2ccccc2)CC1)[S+](=O)([O-])c1cccc2cnccc12 (stereo not shown) [NCGC00163381] | – | – | 77 | 79 | 87 | 79.2 | -6.300 | –
COc1ccc(CN2C[C@@H](F)[C@@H](OCc3nc4cc(C)ccc4[nH]3)C2)cc1 [NCGC00393009-01] | > 57 | – | – | – | – | – | – | –
COCCNc1ncccc1-c1noc([C@@H]2CCCN2Cc2ccccn2)n1 [NCGC00394837-01] | > 57 | 7.69 | – | – | – | – | – | –
COCC(=O)N[C@H]1C[C@@H](Cc2cc(-c3ccc(OC)cc3)on2)C1(C)C [NCGC00395450-01] | > 57 | – | – | – | – | – | – | –
CN(C)c1ccc2ncc(Nc3ccc(Oc4ccccc4)cc3)n2n1 [NCGC00412534-01] | > 57 | 8.63 | – | – | – | – | – | –
O=C(Nc1ccc(Cl)cc1)c1nc2c(o1)CCN(Cc1ccc(F)cc1F)CC2 [NCGC00413332-01] | > 57 | – | – | – | – | – | – | –
